The values below are quoted from earlier work in US20180116920A1, “MULTI-STEP PROCESS FOR NO PRODUCTION” (BSN medical GmbH, priority 2015, published 2018).

The conditions of data set [1]: generally assumed.

For the molecule `O=C1O[C@H]([C@@H](O)CO)C(O)=C1O` [ascorbic acid], for the setting “at pH 7 and 25° C.”, the standard redox potential is −0.04 V.

On to `N[C@@H](CS)C(=O)O` [cysteine], for which the redox potential (cysteine-cystine, 25° C., pH 7.0) is on record as −0.2 Volt.

As to nitrogen monoxide, the “maximum solubility of NO in aqueous solution” value in data set [1] is listed as “approximately 2 mM”.
